Data on one compound can be found in patent US11612586B2, “Indole regulation of antigen presenting cells” (THE TEXAS A&M UNIVERSITY SYSTEM, priority 2016, dated 2023).

“Also recorded” adds a separate entry of the source. Where only a bound is given, the exact number is not on record here.

The subject of assay [1] is reactive oxygen species (ROS). Briefly: Reactive oxygen species production in DC2.4 and BMDC.
Assay [2] deals with Stat3. The assay is described as follows: IL-6-induced phospho-Stat3 in BMDMs. Type of assay: cell-based, mouse. On the procedure:
BMDMs were treated with indole or DMF control for 18 hours, then stimulated with IL-6 (10 ng/ml) for the given times. Cells were stained for phospho-Stat3 and analyzed by flow cytometry.
Similarly, the ex vivo indole conditioning of splenocytes was repeated with tissues from AhR-deficient and wild-type mice and analyzed TNF production. […] Importantly, in this set of experiments splenocytes were stimulated with LPS, heat-killed S. typhimurium, and CpG. […] Specifically, BMDMs were generated from WT or AhR-KO mice and treated with indole (1 mM) or DMF control for 18 hours. BMDMs were then stimulated with IL-6 (10 ng/ml) for the given times and stained for phospho-Stat3, which was detected by flow cytometry.

The subject of assay [3] is IL-10. Briefly: IL-10 production by BMDC cultures (ELISA). In kind it is cell-based, mouse. The conditions noted are these: indole-conditioned DCs. On the procedure:
To determine whether this was a specific downregulation of pro-inflammatory cytokines, production of the canonical DC-produced anti-inflammatory cytokines, IL-10 and TGF-β, was also examined.
Cytokine concentration in the supernatant of BMDC cultures was assessed using commercially available ELISA kits for IL-10 (Peprotech) and TGF-β (eBioscience) per the manufacturer's instructions.
For orientation: ELISA stands for enzyme-linked immunosorbent assay.

Assay [4] deals with MHC-II and CD86. The conditions noted are these: BMDC, indole from day 0, 3, or 6, LPS stimulation.
Assay [5] concerns Salmonella Typhimurium. Briefly: Salmonella invasion of and intracellular survival in J774.A1 macrophages. Type of assay: cell-based.
Assay [6] deals with IL-6. Briefly: IL-6 production in splenic CD11c+ DCs ex vivo. The following applies: indole overnight, LPS or heat-killed S. typhimurium.
For assay [7], the system named is CCR9. Briefly: CCR9 induction on naïve T cells by conditioned DCs. In kind it is cell-based, mouse. On the procedure: FIG. 18 graphically illustrates that indole-conditioned DCs induce CCR9 on naïve T cells upon activation. Naïve CD4+CD25− T cells from OT-II mice were co-cultured with OVA323-339 peptide-loaded BMDCs for 72 hours in the presence of RA as indicated. BMDCs were previously treated with indole, RA, or DMF from day 3. Following 3 days of co-culture, surface staining was performed for flow cytometric analysis.
Based on the observation that indole induces gut homing markers on developing DCs, it was queried whether indole-conditioned DCs could also confer gut homing markers upon naïve CD4+ T cells. The antigen-specific T cell activation model was used to address this question, and a titration of RA was included as a positive control to induce CCR9. […] Just 10 nM of RA enabled indole-DC co-cultures to achieve over 50% of T cells expressing CCR9 which was similar to RA-DC positive controls, whereas DMF-DC co-cultures with the same concentration of RA added achieved only 10% of CCR9+ T cells.
Naïve CD4+CD25− T cells of spleen and lymph nodes from OT-II mice were isolated by negative selection via column purification using the Naïve CD4+ T Cell Isolation Kit (Miltenyi Biotec). Naïve CD4+ T cells (>96% pure) were labeled with Cell Proliferation Dye efluor450 (eBioscience) following manufacturer's instructions then co-cultured with OVA peptide-loaded BMDCs at a ratio of 2:1 for 72 hours in a 96-well round-bottom tissue culture plate. BMDCs were previously treated with indole or RA from day 3. On day 7, DCs were washed extensively prior to being loaded with OVA323-339 peptide (10 ug/ml) for 1 hour at 37° C. BMDCs were then washed three times and plated with naïve CD4+ T cells. RA or TGFβ were added to co-cultures as indicated. Following 3 days of culture, cells were stained with antibodies to CD4, CCR9, and LPAM-1 (α4β7). Intracellular staining for Foxp3 was performed using a Foxp3 staining kit (eBioscience). The remaining CD4+ helper T cell lineages Th1, Th2, and Th17 were identified by their cytokine production. […]

Assay [8] deals with IL-12. Briefly: IL-12 production in BMDCs, intracellular staining, flow cytometry. In kind it is cell-based, mouse. On the procedure: Intracellular staining was performed to assess TNF (FIG. 3A) and IL-12 (FIG. 3B) production.
(§1) Briefly, bone marrow was harvested from femurs of mice and cultured for 7 days in the presence of DC-skewing cytokines, GM-CSF and IL-4. […] The pro-inflammatory cytokines, IL-6 and IL-12, were specifically queried. […] Immune cells communicate largely through the production of soluble factors including cytokines, and DCs detect these signals and determine their effector functions accordingly.
The inventors performed a series of assays where bone marrow derived macrophages (BMDMs), bone marrow derived dendritic cells (BMDCs), and splenic dendritic cells (splenic DCs), were exposed to a series of TDMMs, including indole, indole-3-acetate (I3AT), 5-hydroxyindole (5HI), and indole-3-pyruvate (I3P), as well as indole-3-carbinol (I3C; a plant derived compound) to be used for a positive control (1 mM for 24 hours). The BMDMs and BMDCs were stimulated with LPS for 4 hours and assayed at day 7 for expression of various pro-inflammatory cytokines. In a similar assay, the BMDMs and BMDCs were stimulated with LPS or CpG, respectively, for 15 minutes and assayed for pAKT and pERK signaling, which is a reflection of pro-inflammatory response.

For assay [9], the system named is IL-6. The assay is described as follows: IL-6 production in BMDCs, intracellular staining, flow cytometry. In kind it is cell-based, mouse. The following applies: indole 24 hours (overnight), LPS 1 ug/ml 4 hours.
Description: as §1
A general note: A flow cytometer gives signals particle by particle.

`c1ccc2[nH]ccc2c1` [Indole, indole]: the “secretion of reactive oxygen species (ROS)” value in [1] is “intact”. Besides, the “reduction of Stat3 signaling” value in [2] (BMDMs from WT or AhR-KO mice, 1 mM indole 18 hours, IL-6 10 ng/ml) is “over 60%”. For the same compound, in assay [2] (BMDMs, overnight indole, IL-6 stimulation), the “reduction of number of macrophages undergoing Stat3 phosphorylation” value is reported as 50%. In addition, the IL-10 production entry in assay [3] is “Neither IL-10 nor TGF-β production were affected”. In addition, the “DC maturation (MHC-II and CD86 expression)” value in [4] was “did not alter DC maturation”. Besides, the “intracellular survival of Salmonella in J774.A1 macrophages” value in assay [5] is given as “not significantly affected”. Also, the “decrease of Salmonella invasion of J774.A1 macrophages” value in assay [5] (Salmonella exposed to indole) turned out to be 2 fold. The “inhibition of IL-6 production” value in assay [6] and in assay [9] was no less than 2 fold in each case. The “T cells expressing CCR9” value in assay [7] (co-culture with DCs conditioned with indole, 10 nM of RA added) is given as “over 50%”. The “induction of CCR9 on naïve T cells by conditioned BMDCs alone” value in assay [7] (no exogenous RA in the co-culture) is “insufficient; also recorded: did not induce CCR9”. For the same compound, the “reduction in IL-12” value in [8] (BMDCs exposed to indole from day 3 of 7 day culture, LPS stimulation) was determined as 40%. For the same compound, in assay [8] (BMDCs, 1 mM TDMM 24 hours, LPS (1 ug/ml) 4 hours), the IL-12 entry is recorded as “↓↓”. Besides, the “inhibition of IL-12 production” value in assay [8] (BMDCs, indole 24 hours (overnight), LPS 1 ug/ml 4 hours) is given as no less than 2 fold.
